Experiments:
Format in all cases: cell-based
Set-up in all cases: dose or concentration left out as unconfirmed
Settings in all cases: 96 hours
[1] = test system: breast tumor cell line MCF-7; experiment: Trypan blue exclusion viability assay, MCF-7
Protocol: (§1) MCF-7 is estrogen-responsive, while BT-20 is an estrogen-unresponsive cell line. NIH/3T3 and HFL are normal murine and human fibroblasts, respectively. MCF-7, BT-20, DLD-1 and H157 were grown in Dulbecco's modified Eagle's medium (DMEM) containing 10% fetal bovine serum supplemented with penicillin and streptomycin. DU145 was cultured in RPMI with 10% fetal bovine serum containing penicillin and streptomycin. […] All cell cultures were maintained at 37° C. in a humidified atmosphere of 5% CO2. Cells were treated with test compound at 2.5 mM concentration and cell viability was determined after 96 hours by the Trypan blue exclusion method.

[2] = test system: prostate tumor cell line DU-145; experiment: Trypan blue exclusion viability assay, DU145
Protocol: as §1

[3] = test system: non-small cell lung carcinoma cell line H157; experiment: Trypan blue exclusion viability assay, H157
Protocol: as §1

[4] = test system: colorectal carcinoma cell line DLD-1; experiment: Trypan blue exclusion viability assay, DLD-1
Protocol: as §1

[5] = test system: breast tumor cell line BT-20; experiment: Trypan blue exclusion viability assay, BT20
Protocol: as §1

| Structure (SMILES) | Cell death, MCF-7 [1] | Cell death, DU145 [2] | Cell death, H157 [3] | Cell death, DLD-1 [4] | Cell death, BT20 [5] |
| --- | --- | --- | --- | --- | --- |
| N#Cc1ccc(CS(=O)(=O)/C=C/c2ccc(F)cc2)cc1 [Example 10, (E)-4-Fluorostyryl-4-cyanobenzylsulfone] | +++ (40-50% = +++) | ++ (10-15% = ++) | +++ (40-50% = +++) | – | – |
| N#Cc1ccc(CS(=O)(=O)/C=C/c2ccc(Cl)cc2)cc1 [Example 11, (E)-4-Chlorostyryl-4-cyanobenzylsulfone] | + (5-10%: = +) | + (5-10%: = +) | + (5-10%: = +) | – | – |
| N#Cc1ccc(CS(=O)(=O)/C=C/c2ccccc2[N+](=O)[O-])cc1 [Example 52, (E)-2-nitrostyryl-4-cyanobenzylsulfone] | – | + (5-10%: = +) | + (5-10%: = +) | + (5-10%: = +) | + (5-10%: = +) |
| COc1ccc(CS(=O)(=O)/C=C/c2ccc([N+](=O)[O-])cc2)cc1 [Example 65, (E)-4-nitrostyryl-4-methoxybenzylsulfone] | – | ++++ (50-60% = ++++) | ++++ (50-60% = ++++) | ++++ (50-60% = ++++) | ++++ (50-60% = ++++) |
| N#Cc1ccc(CS(=O)(=O)/C=C/c2ccc(Br)cc2)cc1 [Example 12, (E)-4-Bromostyryl-4-cyanobenzylsulfone] | − (0% = −) | − (0% = −) | + (5-10%: = +) | − (0% = −) | – |
| O=[N+]([O-])c1ccccc1/C=C/S(=O)(=O)Cc1ccc(Cl)cc1Cl [Example 44, (E)-2-nitrostyryl-2,4-dichlorobenzylsulfone] | – | + (5-10%: = +) | + (5-10%: = +) | + (5-10%: = +) | + (5-10%: = +) |
| O=S(=O)(/C=C/c1cccc(Cl)c1Cl)Cc1ccc(Cl)cc1 [Example 18, (E)-2,3-Dichlorostyryl-4-chlorobenzylsulfone] | + (5-10%: = +) | + (5-10%: = +) | – | + (5-10%: = +) | – |
| O=[N+]([O-])c1ccc(CS(=O)(=O)/C=C/c2ccc(Cl)cc2)cc1 [Example 66, (E)-4-chlorostyryl-4-nitrobenzylsulfone] | – | + (5-10%: = +) | + (5-10%: = +) | + (5-10%: = +) | + (5-10%: = +) |
| O=S(=O)(/C=C/c1ccccc1C(F)(F)F)Cc1ccc(F)cc1 [Example 32, (E)-2-trifluoromethylstyryl-4-fluorobenzylsulfone] | – | + (5-10%: = +) | + (5-10%: = +) | + (5-10%: = +) | + (5-10%: = +) |
| Cc1ccc(CS(=O)(=O)/C=C/c2ccc([N+](=O)[O-])cc2)cc1 [Example 59, (E)-4-nitrostyryl-4-methylbenzylsulfone] | – | + (5-10%: = +) | + (5-10%: = +) | + (5-10%: = +) | + (5-10%: = +) |
| O=S(=O)(/C=C/c1ccc(Cl)c(Cl)c1)Cc1ccc(Cl)cc1 [Example 17, (E)-3,4-Dichlorostyryl-4-chlorobenzylsulfone] | + (5-10%: = +) | + (5-10%: = +) | – | + (5-10%: = +) | – |
| N#Cc1ccc(CS(=O)(=O)/C=C/c2ccc([N+](=O)[O-])cc2)cc1 [Example 54, (E)-4-nitrostyryl-4-cyanobenzylsulfone] | – | ++++ (50-60% = ++++) | ++++ (50-60% = ++++) | ++++ (50-60% = ++++) | ++++ (50-60% = ++++) |
| O=S(=O)(/C=C/c1ccc(F)c(Cl)c1)Cc1ccc(Cl)cc1 [Example 14, (E)-3-Chloro-4-fluorostyryl-4-chlorobenzylsulfone] | − (0% = −) | − (0% = −) | − (0% = −) | − (0% = −) | – |
| O=S(=O)(/C=C/c1ccc(F)cc1C(F)(F)F)Cc1ccc(Cl)cc1 [Example 42, (E)-2-trifluoromethyl-4-fluorostyryl-4-chlorobenzylsulfone] | – | + (5-10%: = +) | + (5-10%: = +) | + (5-10%: = +) | + (5-10%: = +) |
| O=[N+]([O-])c1ccccc1/C=C/S(=O)(=O)Cc1ccc(F)cc1 [Example 29, (E)-2-nitrostyryl-4-fluorobenzylsulfone] | – | + (5-10%: = +) | + (5-10%: = +) | + (5-10%: = +) | + (5-10%: = +) |
| Cc1cc(/C=C/S(=O)(=O)Cc2ccc(Cl)cc2)ccc1F [Example 43, (E)-3-methyl-4-fluorostyryl-4-chlorobenzylsulfone] | – | + (5-10%: = +) | + (5-10%: = +) | + (5-10%: = +) | + (5-10%: = +) |
| O=S(=O)(/C=C/c1ccc(Cl)cc1)Cc1ccc(I)cc1 [Example 23, (E)-4-Chlorostyryl-4-iodobenzylsulfone] | – | ++ (10-15% = ++) | ++ (10-15% = ++) | ++ (10-15% = ++) | +++ (40-50% = +++) |
| O=[N+]([O-])c1ccc(CS(=O)(=O)/C=C/c2ccc(F)cc2)cc1 [Example 67, (E)-4-fluorostyryl-4-nitrobenzylsulfone] | – | + (5-10%: = +) | + (5-10%: = +) | + (5-10%: = +) | + (5-10%: = +) |
| O=S(=O)(/C=C/c1ccc(Cl)cc1Cl)Cc1ccc(Cl)cc1 [Example 16, (E)-2,4-Dichlorostyryl-4-chlorobenzylsulfone] | ++++ (50-60% = ++++) | +++ (40-50% = +++) | – | ++++ (50-60% = ++++) | – |
| O=S(=O)(/C=C/c1ccccc1C(F)(F)F)Cc1ccc(Cl)cc1 [Example 39, (E)-2-trifluoromethylstyryl-4-chlorobenzylsulfone] | – | + (5-10%: = +) | + (5-10%: = +) | + (5-10%: = +) | + (5-10%: = +) |
| O=S(=O)(/C=C/c1cccc(C(F)(F)F)c1)Cc1ccc(F)cc1 [Example 33, (E)-3-trifluoromethylstyryl-4-fluorobenzylsulfone] | – | + (5-10%: = +) | + (5-10%: = +) | + (5-10%: = +) | + (5-10%: = +) |
| O=S(=O)(/C=C/c1ccc(C(F)(F)F)cc1)Cc1ccc(F)cc1 [Example 34, (E)4-trifluoromethylstyryl-4-fluorobenzylsulfone] | – | + (5-10%: = +) | + (5-10%: = +) | + (5-10%: = +) | + (5-10%: = +) |
| Cc1ccc(CS(=O)(=O)/C=C/c2ccc(F)cc2)cc1 [Example 55, (E)-4-fluorostyryl-4-methylbenzylsulfone] | – | + (5-10%: = +) | + (5-10%: = +) | + (5-10%: = +) | + (5-10%: = +) |

Reference: patent US6762207B1, “(E)-styryl sulfone anticancer agents” (priority 1999, dated 2004)
